How the values were obtained:
Experiment in all cases: cells
D-247MG = type: functional, cell-based, Homo sapiens; conditions: Homo sapiens, D-247MG
Description: SANGER: Inhibition of human D-247MG cell growth in a cell viability assay.

NCI-H1092 = type: functional, cell-based; conditions: Homo sapiens;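 also: cell growth inhibition measured with a cell viability assay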
Description: SANGER: Inhibition of human NCI-H1092 cell growth in a cell viability assay.

LB831-BLC = type: functional, cell-based, Homo sapiens; conditions: Homo sapiens, LB831-BLC;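 also: growth inhibition of LB831-BLC cells, read out with a cell viability assay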
Description: SANGER: Inhibition of human LB831-BLC cell growth in a cell viability assay.

CTB-1 = type: functional, cell-based; conditions: Homo sapiens
Description: SANGER: Inhibition of human CTB-1 cell growth in a cell viability assay.

MC116 = type: functional, cell-based; conditions: Homo sapiens;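 also: growth inhibition of MC116 cells, read out with a cell viability assay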
Description: SANGER: Inhibition of human MC116 cell growth in a cell viability assay.

BB49-HNC = type: functional, cell-based, Homo sapiens; conditions: Homo sapiens, BB49-HNC;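 also: cell viability assay read-out, reported as inhibition of BB49-HNC cell growth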
Description: SANGER: Inhibition of human BB49-HNC cell growth in a cell viability assay.

ES5 = type: functional, cell-based, Homo sapiens; conditions: Homo sapiens, ES5;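 also: growth inhibition of human ES5 cells, read out by a cell viability assay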
NOMO-1 = type: functional, cell-based; conditions: Homo sapiens;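 also: growth inhibition of human NOMO-1 cells measured by a cell viability assay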
Description: SANGER: Inhibition of human NOMO-1 cell growth in a cell viability assay.

KM-H2 = type: functional, cell-based; conditions: Homo sapiens;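 also: growth inhibition of KM-H2 cells, read out by a cell viability assay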
Description: SANGER: Inhibition of human KM-H2 cell growth in a cell viability assay.

TE-6 = type: functional, cell-based, Homo sapiens; conditions: Homo sapiens, TE-6;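 also: growth inhibition of TE-6 cells, read out with a cell viability assay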
Description: SANGER: Inhibition of human TE-6 cell growth in a cell viability assay.

GB-1 = type: functional, cell-based, Homo sapiens; conditions: Homo sapiens, GB-1;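 also: growth of GB-1 cells judged by a viability assay, IC50 marks the concentration inhibiting growth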
Description: SANGER: Inhibition of human GB-1 cell growth in a cell viability assay.

NCI-H1650 = type: functional, cell-based, Homo sapiens; conditions: Homo sapiens, NCI-H1650;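 also: growth inhibition of human NCI-H1650 cells measured by a cell viability assay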
Description: SANGER: Inhibition of human NCI-H1650 cell growth in a cell viability assay.

LC-2-ad = type: functional, cell-based, Homo sapiens; conditions: Homo sapiens, LC-2-ad;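 also: growth inhibition of human LC-2-ad cells, read out with a cell viability assay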
Description: SANGER: Inhibition of human LC-2-ad cell growth in a cell viability assay.

JAR = type: functional, cell-based, Homo sapiens; conditions: Homo sapiens, JAR;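 also: growth inhibition of human JAR cells determined with a cell viability assay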
SW684 = type: functional, cell-based, Homo sapiens; conditions: Homo sapiens, SW684;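 also: growth inhibition of human SW684 cells, measured by a cell viability assay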
Description: SANGER: Inhibition of human SW684 cell growth in a cell viability assay.

DJM-1 = type: functional, cell-based, Homo sapiens; conditions: Homo sapiens, DJM-1;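 also: growth inhibition of human DJM-1 cells, read out by a cell viability assay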
Description: SANGER: Inhibition of human DJM-1 cell growth in a cell viability assay.

NCI-H526 = type: functional, cell-based; conditions: Homo sapiens;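 also: growth inhibition of the human NCI-H526 cell line, measured by a cell viability assay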
Description: SANGER: Inhibition of human NCI-H526 cell growth in a cell viability assay.

SF-126 = type: functional, cell-based, Homo sapiens; conditions: Homo sapiens, SF-126;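 also: growth inhibition of human SF126 cells, read out with a cell viability assay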
Description: SANGER: Inhibition of human SF126 cell growth in a cell viability assay.

KARPAS-45 = type: functional, cell-based; conditions: Homo sapiens;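 also: inhibition of cell line growth, read out through a viability assay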
Description: SANGER: Inhibition of human KARPAS-45 cell growth in a cell viability assay.

ETK-1 = type: functional, cell-based, Homo sapiens; conditions: Homo sapiens, ETK-1;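 also: growth inhibition of human ETK-1 cells, read out with a cell viability assay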
Description: SANGER: Inhibition of human ETK-1 cell growth in a cell viability assay.

NB7 = type: functional, cell-based; conditions: Homo sapiens;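 also: growth inhibition of NB7 cells, read out with a cell viability assay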
Description: SANGER: Inhibition of human NB7 cell growth in a cell viability assay.

MV4-11 = type: functional, cell-based, MV-4-11; conditions: Homo sapiens;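 also: cell viability readout measuring growth inhibition of human MV-4-11 cells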
Description: SANGER: Inhibition of human MV-4-11 cell growth in a cell viability assay.

HuTu80 = type: functional, cell-based, Homo sapiens, HUTU-80; conditions: Homo sapiens, HuTu80;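 also: growth inhibition of HuTu80 human cells, determined with a cell viability readout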
Description: SANGER: Inhibition of human HUTU-80 cell growth in a cell viability assay.

KURAMOCHI = type: functional, cell-based; conditions: Homo sapiens;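 also: growth inhibition of KURAMOCHI cells, read out with a cell viability assay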
Description: SANGER: Inhibition of human KURAMOCHI cell growth in a cell viability assay.

NB5 = type: functional, cell-based, Homo sapiens; conditions: Homo sapiens, NB5;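 also: growth inhibition of NB5 cells, read out as cell viability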
Description: SANGER: Inhibition of human NB5 cell growth in a cell viability assay.

MSTO-211H = type: functional, cell-based, Homo sapiens; conditions: Homo sapiens, MSTO-211H
Description: SANGER: Inhibition of human MSTO-211H cell growth in a cell viability assay.

COLO-320-HSR = type: functional, cell-based; conditions: Homo sapiens;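 also: growth inhibition of COLO-320-HSR cells, determined with a cell viability assay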
Description: SANGER: Inhibition of human COLO-320-HSR cell growth in a cell viability assay.

GR-ST = type: functional, cell-based; conditions: Homo sapiens
Description: SANGER: Inhibition of human GR-ST cell growth in a cell viability assay.

SW 962 = type: functional, cell-based, Homo sapiens; conditions: Homo sapiens, SW 962;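 also: growth inhibition of human SW962 cells, read out by a cell viability assay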
Description: SANGER: Inhibition of human SW962 cell growth in a cell viability assay.

KG-1 = type: functional, cell-based; conditions: Homo sapiens;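 also: growth inhibition of KG-1 cells, read out by a cell viability assay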
MOLT-16 = type: functional, cell-based; conditions: Homo sapiens;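 also: growth inhibition of human MOLT-16 cells, read out with a cell viability assay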
Description: SANGER: Inhibition of human MOLT-16 cell growth in a cell viability assay.

SCC-15 = type: functional, cell-based, Homo sapiens; conditions: Homo sapiens, SCC-15;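 also: growth inhibition of SCC-15 cells, read out with a cell viability assay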
Description: SANGER: Inhibition of human SCC-15 cell growth in a cell viability assay.

TGBC24TKB = type: functional, cell-based, Homo sapiens; conditions: Homo sapiens, TGBC24TKB;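 also: growth inhibition of human TGBC24TKB cells, read out with a cell viability assay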
Description: SANGER: Inhibition of human TGBC24TKB cell growth in a cell viability assay.

SMILES	IC50 (D-247MG) [µM]	IC50 (NCI-H1092) [µM]	IC50 (LB831-BLC) [µM]	IC50 (CTB-1) [µM]	IC50 (MC116) [µM]	IC50 (BB49-HNC) [µM]	IC50 (ES5) [µM]	IC50 (NOMO-1) [µM]	IC50 (KM-H2) [µM]	IC50 (TE-6) [µM]	IC50 (GB-1) [µM]	IC50 (LC-2-ad) [µM]	IC50 (JAR) [µM]	IC50 (SW684) [µM]	IC50 (DJM-1) [µM]	IC50 (NCI-H526) [µM]	IC50 (SF-126) [µM]	IC50 (KARPAS-45) [µM]	IC50 (ETK-1) [µM]	IC50 (NB7) [µM]	further results
C=C1C(=O)O[C@@H]2C3O[C@]3(C)CC/C=C(\C)CC[C@@H]12 (stereo partly drawn)	> 5	> 5	> 5	3.85	> 5	> 5	> 5	> 5	> 5	> 5	> 5	> 5	> 5	> 5	> 5	> 5	> 5	> 5	> 5	> 5	IC50 (NCI-H1650): > 5 µM; IC50 (MV4-11): > 5 µM; IC50 (HuTu80): > 5 µM; IC50 (KURAMOCHI): > 5 µM; IC50 (NB5): > 5 µM; IC50 (MSTO-211H): > 5 µM; IC50 (COLO-320-HSR): > 5 µM; IC50 (GR-ST): > 5 µM; IC50 (SW 962): > 5 µM; IC50 (KG-1): > 5 µM; IC50 (MOLT-16): > 5 µM
CC1=C2C[C@H]3[C@@H](CC=C4C[C@@H](O)CC[C@@]43C)[C@@H]2CC[C@]12O[C@@H]1C[C@H](C)CN[C@H]1[C@H]2C [CYCLOPAMINE]	> 16	> 16	> 16	> 16	> 16	> 16	> 16	> 16	> 16	> 16	> 16	> 16	> 16	> 16	> 16	> 16	> 16	> 16	> 16	> 16	IC50 (NCI-H1650): > 16 µM; IC50 (MV4-11): > 16 µM; IC50 (HuTu80): > 16 µM; IC50 (SCC-15): > 16 µM; IC50 (NB5): > 16 µM; IC50 (MSTO-211H): > 16 µM; IC50 (COLO-320-HSR): > 16 µM; IC50 (GR-ST): > 16 µM; IC50 (SW 962): > 16 µM; IC50 (KG-1): > 16 µM; IC50 (MOLT-16): > 16 µM
CS(=O)(=O)CCNCc1ccc(-c2ccc3ncnc(Nc4ccc(OCc5cccc(F)c5)c(Cl)c4)c3c2)o1 [LAPATINIB]	> 2	> 2	> 2	> 2	> 2	> 2	> 2	> 2	> 2	1.55	> 2	> 2	> 2	> 2	> 2	> 2	> 2	> 2	> 2	> 2	IC50 (NCI-H1650): > 2 µM; IC50 (MV4-11): > 2 µM; IC50 (HuTu80): > 2 µM; IC50 (SCC-15): > 2 µM; IC50 (KURAMOCHI): > 2 µM; IC50 (NB5): > 2 µM; IC50 (MSTO-211H): > 2 µM; IC50 (COLO-320-HSR): > 2 µM; IC50 (GR-ST): > 2 µM; IC50 (SW 962): > 2 µM; IC50 (KG-1): > 2 µM; IC50 (MOLT-16): > 2 µM
CCc1nc(N)nc(N)c1-c1ccc(Cl)cc1 [PYRIMETHAMINE]	> 20	> 20	> 20	> 20	17.9	> 20	> 20	> 20	12	> 20	> 20	> 20	> 20	> 20	> 20	7.92	> 20	> 20	4.1	> 20	IC50 (NCI-H1650): > 20 µM; IC50 (MV4-11): 11.4 µM; IC50 (HuTu80): 12.1 µM; IC50 (KURAMOCHI): > 20 µM; IC50 (NB5): > 20 µM; IC50 (MSTO-211H): 7.64 µM; IC50 (COLO-320-HSR): 4 µM; IC50 (GR-ST): 0.709 µM; IC50 (SW 962): > 20 µM; IC50 (KG-1): > 20 µM; IC50 (MOLT-16): 15.1 µM
O=C(/C=C/c1ccccc1)NC(NC(=S)Nc1cccc2cccnc12)C(Cl)(Cl)Cl (stereo not drawn) [SALUBRINAL]	> 16	> 16	> 16	> 16	11.2	> 16	> 16	> 16	> 16	> 16	> 16	> 16	> 16	> 16	> 16	> 16	> 16	> 16	> 16	> 16	IC50 (NCI-H1650): > 16 µM; IC50 (MV4-11): > 16 µM; IC50 (HuTu80): 11.7 µM; IC50 (SCC-15): > 16 µM; IC50 (KURAMOCHI): > 16 µM; IC50 (NB5): > 16 µM; IC50 (MSTO-211H): > 16 µM; IC50 (COLO-320-HSR): > 16 µM; IC50 (GR-ST): > 16 µM; IC50 (SW 962): > 16 µM; IC50 (KG-1): > 16 µM; IC50 (MOLT-16): 14 µM
CN1CCN(CCOc2cc(OC3CCOCC3)c3c(Nc4c(Cl)ccc5c4OCO5)ncnc3c2)CC1 [SARACATINIB]	> 2	> 2	> 2	> 2	> 2	> 2	> 2	> 2	> 2	> 2	1.8	> 2	> 2	> 2	> 2	> 2	> 2	> 2	> 2	> 2	IC50 (TGBC24TKB): > 2 µM; IC50 (MV4-11): > 2 µM; IC50 (HuTu80): > 2 µM; IC50 (SCC-15): > 2 µM; IC50 (KURAMOCHI): > 2 µM; IC50 (NB5): > 2 µM; IC50 (MSTO-211H): > 2 µM; IC50 (COLO-320-HSR): > 2 µM; IC50 (GR-ST): > 2 µM; IC50 (SW 962): > 2 µM; IC50 (KG-1): > 2 µM; IC50 (MOLT-16): > 2 µM
CO[C@H]1C[C@@H]2CC[C@@H](C)[C@@](O)(O2)C(=O)C(=O)N2CCCC[C@H]2C(=O)O[C@H]([C@H](C)C[C@@H]2CC[C@@H](O)[C@H](OC)C2)CC(=O)[C@H](C)/C=C(\C)[C@@H](O)[C@@H](OC)C(=O)[C@H](C)C[C@H](C)/C=C/C=C/C=C/1C [SIROLIMUS]	> 0.1	> 0.1	> 0.1	> 0.1	0.000985	> 0.1	> 0.1	> 0.1	> 0.1	0.00277	> 0.1	0.000423	> 0.1	> 0.1	> 0.1	0.0936	0.0304	> 0.1	0.00282	> 0.1	IC50 (TGBC24TKB): 0.00551 µM; IC50 (NCI-H1650): > 0.1 µM; IC50 (MV4-11): 0.0837 µM; IC50 (HuTu80): 0.00442 µM; IC50 (SCC-15): > 0.1 µM; IC50 (KURAMOCHI): > 0.1 µM; IC50 (NB5): > 0.1 µM; IC50 (MSTO-211H): > 0.1 µM; IC50 (COLO-320-HSR): > 0.1 µM; IC50 (GR-ST): 0.000846 µM; IC50 (SW 962): > 0.1 µM; IC50 (KG-1): > 0.1 µM; IC50 (MOLT-16): > 0.1 µM
CNC(=O)c1cc(Oc2ccc(NC(=O)Nc3ccc(Cl)c(C(F)(F)F)c3)cc2)ccn1 [SORAFENIB]	2.14	> 4	> 4	> 4	> 4	> 4	> 4	> 4	> 4	> 4	> 4	> 4	> 4	> 4	> 4	> 4	1.64	> 4	> 4	> 4	IC50 (MV4-11): < 0.0156 µM; IC50 (HuTu80): > 4 µM; IC50 (SCC-15): > 4 µM; IC50 (KURAMOCHI): > 4 µM; IC50 (NB5): > 4 µM; IC50 (MSTO-211H): > 4 µM; IC50 (COLO-320-HSR): > 4 µM; IC50 (GR-ST): > 4 µM; IC50 (SW 962): > 4 µM; IC50 (KG-1): 1.48 µM; IC50 (MOLT-16): > 4 µM

— ChEMBL document CHEMBL1201861, “Genomics of Drug Sensitity in Cancer screening data, Wellcome Trust Sanger Institute”
